Laboratory results taken from paper PMC6413231, “o-Vanillin Derived Schiff Bases and Their Organotin(IV) Compounds: Synthesis, Structural Characterisation, In-Silico Studies and Cytotoxicity” (International Journal of Molecular Sciences, 2019).
Read-outs that look alike come from different tables or passages of the source.

How the values were obtained:
[1] = tested on: MIA (pancreatic) cancer cells; test: MTT growth inhibition assay, MIA; format: cell-based; conditions: 72 h, ± standard error, read-out: Growth Inhibition Concentration, GI50
Method: (§1) The Schiff bases and their organotin(IV) compounds were screened for in vitro cytotoxicity against a panel of 12 cancer cell lines: EJ-28 (muscle invasive bladder), RT-112 (minimum-invasive bladder), HT29 (colon), U87 and SJ-G2 (glioblastoma), MCF-7 (breast), A2780 (ovarian), H460 (lung), A431 (skin), DU145 (prostate), BE2-C (neuroblastoma), MIA (pancreatic) and one normal breast cell line (MCF-10A) using the MTT metabolic assay (Figure 6). After 72 h of incubation, a dose-dependent […] effect towards the cancer cell lines was measured at very low micromolar (µM) concentrations of the compounds. The growth inhibition concentration of the Schiff bases and their organotin(IV) compounds required to inhibit 50% cell proliferation relative to the cells that were treated with DMSO (control) are given in Table 2. The stability of these compounds was assessed in DMSO as well as in a mixture of DMSO-H2O. The absorbance obtained from UV-vis spectroscopy analysis was monitored for 72 h, and an unchanged pattern in the spectra was indicative that the compounds were stable in both the solvent systems tested.
(§2) For HT29 (colon), U87 and SJ-G2 (glioblastoma), MCF-7 (breast), A2780 (ovarian), H460 (lung), A431 (skin), Du145 (prostate), BE2-C (neuroblastoma), MIA (pancreas) cell lines and one normal breast cell line, MCF-10A (normal breast), the MTT assays were performed using the following method:
(§3) Stock solutions were prepared as follows and stored at −20 °C: Trial compounds were stored as 10 mM solutions in DMSO. All cell lines were cultured in a humidified atmosphere 5% CO2 at 37 °C. The cancer cell lines were maintained in Dulbecco’s modified Eagle’s medium (DMEM) (Trace Biosciences) supplemented with 10% foetal bovine serum, 10 mM sodium bicarbonate, penicillin (100 IU/mL), streptomycin (100 μg/mL) and glutamine (4 mM). The normal cell line, MCF-10A was cultured in DMEM:F12 (1:1) cell culture media, 5% heat inactivated horse serum, supplemented with penicillin (50 IU/mL), streptomycin (50 μg/mL), 20mM Hepes, L-glutamine (2 mM), epidermal growth factor (20 ng/mL), hydrocortisone (500 ng/mL), cholera toxin (100 ng/mL) and insulin (10 μg/mL).
(§4) Cells in logarithmic growth were transferred to 96-well plates. Cytotoxicity was determined by plating cells in duplicate in 100 μL medium at a density of 2500–4000 cells/well. On day 0 (24 h after plating), when the cells were in logarithmic growth, 100 μL medium, with or without the test agent, was added to each well. After 72 h drug exposure, growth inhibitory effects were evaluated using the MTT (3-[4,5-dimethylthiazol-2-yl]-2,5-diphenyltetrazolium bromide) assay and absorbance read at 540 nm. Percentage growth inhibition was determined at a fixed drug concentration of 25 μM. A value of 100% was indicative of complete cell growth inhibition. Those analogues showing appreciable percentage growth inhibition underwent further dose-response analysis allowing for the calculation of a GI50 value. This value is the drug concentration at which cell growth is 50% inhibited based on the difference between the optical density values on day 0 and those at the end of drug exposure.

[2] = tested on: RT-112 (minimum-invasive bladder) cancer cells; test: MTT cytotoxicity assay, RT-112; format: cell-based, human; conditions: RT-112 cells, 72 h, ± standard error, read-out: Growth Inhibition Concentration, GI50
Method: as §1
(§5) The inhibitory effect of the synthesised compounds on the growth of bladder (EJ-28 and RT-112) cancer cells was evaluated by MTT assay. […] RT-112 and EJ-28, human bladder cancer cell lines used in this study (ATCC, Manassas, VA, USA) were cultured in RPMI-1640 (High glucose) medium supplemented with 10% fetal bovine serum containing 1% penicillin. The cells were cultured at 37 °C in a humidified atmosphere of 5% CO2 in air. Cells were seeded in 96-well plates at 6000 cells per well for 24 h, then they were treated with different concentrations of compounds for 72 h. The medium was subsequently removed and the wells were washed with 200 µL of phosphate buffer saline. Aliquots of 20 µL of 3-(4,5-dimethylthiazol-2-yl)-2,5-diphenyltetrazolium bromide (MTT) was added to each well and incubated for 4 h at 37 °C. Aliquots of 200 µL of media was then removed from each well and 200 µL of DMSO was added. Optical density (OD) was measured using an ELISA plate reader at 570 nm. Control wells (100% viability), containing media and DMSO, were included in all the experiments. All data points represented an average of triplicate assays. Cytotoxicity was expressed as CD50, i.e., the concentration that reduced the absorbance of treated cells by 50% with reference to the control (untreated cells).

A431 (skin) cancer cells = test: MTT growth inhibition assay, A431; format: cell-based; conditions: ± standard error, read-out: Growth Inhibition Concentration, GI50
Method: as §1, §2, §3, §4

H460 (lung) cancer cells = test: MTT growth inhibition assay, H460; format: cell-based; conditions: ± standard error, read-out: Growth Inhibition Concentration, GI50
Method: as §1, §2, §3, §4

[3] = tested on: HT29 (colon) cancer cells; test: MTT growth inhibition assay, HT29; format: cell-based; conditions: ± standard error, read-out: Growth Inhibition Concentration, GI50
Method: as §1, §2, §3, §4

[4] = tested on: U87 (glioblastoma) cancer cells; test: MTT growth inhibition assay, U87; format: cell-based; conditions: 72 h, ± standard error, read-out: Growth Inhibition Concentration, GI50
Method: as §1, §2, §3, §4

calf thymus DNA (CT-DNA) = test: CT-DNA binding by UV-vis absorption titration; conditions: for Bathochromism Shift (nm) / Hypochromism, (%): CT-DNA, UV-vis absorption titration; for Gibbs Free Energy: interaction with CT-DNA
Method: Both theoretical and experimental DNA binding of the synthesised organotin(IV) compounds with DNA were investigated. The interaction of organotin(IV) compounds with CT-DNA was elucidated via UV-visible absorption spectroscopy. […] The absorption spectra of diphenyltin(IV) compounds at a constant concentration (50 μM) in the absence and the presence of different concentrations of CT-DNA are shown in Figure 8. Upon increasing concentrations of CT-DNA, hypochromism and bathochromism occurred at around 350–377 nm indicating strong π–π stacking interactions between the aromatic chromophore of the organotin(IV) compounds and the nitrogeneous pair of the DNA strand [11, 70]. The same hypochromism and bathochromism shifts were also observed in other transitions. In order to compare the binding strength of the organotin(IV) compounds to CT-DNA, the intrinsic binding constants (Kb) were quantitatively determined and are presented in Table 3.
DNA binding experiments were carried out at 25°C. DNA concentration per nucleotide was determined using the molar absorption coefficient (6600 M^−1 cm^−1) at 260 nm. […] Absorption titration experiments were performed maintaining the concentration of the organotin(IV) compounds solutions at 50 µM and gradually increasing the concentration of CT-DNA. The organotin(IV) compounds were dissolved in DMSO and diluted with Tris-HCI buffer at room temperature (25 °C). The solutions were scanned over 230–600 nm. Absorbance values were recorded 10 min after the addition of DNA solution. The binding constant, Kb was determined using the equation: [DNA]/(εa−εf)=[DNA]/(εb−εf)+1/Kb(εb−εf) where [DNA] is the concentration of DNA in base pairs, εa corresponds to the apparent molar extinction coefficient Aabs/[M], εf corresponds to the extinction coefficient for the free organotin [M] and εb corresponds to the extinction coefficient for the fully bound organotin compound.

[5] = tested on: Du145 (prostate) cancer cells; test: MTT growth inhibition assay, Du145; format: cell-based; conditions: ± standard error, read-out: Growth Inhibition Concentration, GI50
Method: as §1, §2, §3, §4

[6] = tested on: BE2-C (neuroblastoma) cancer cells; test: MTT growth inhibition assay, BE2-C; format: cell-based; conditions: 72 h, ± standard error, read-out: Growth Inhibition Concentration, GI50
Method: as §1, §2, §3, §4

[7] = tested on: MCF-10A (normal breast) cell line; test: MTT growth inhibition assay, MCF10A; format: cell-based; conditions: MCF10A normal breast cells, 72 h, ± standard error, read-out: Growth Inhibition Concentration, GI50
Method: as §1, §2, §3, §4

[8] = tested on: MCF-7 (breast) cancer cells; test: MTT growth inhibition assay, MCF-7; format: cell-based; conditions: 72 h, ± standard error, read-out: Growth Inhibition Concentration, GI50
Method: as §1, §2, §3, §4

[9] = tested on: EJ-28 (muscle invasive bladder) cancer cells; test: MTT cytotoxicity assay, EJ-28; format: cell-based, human; conditions: EJ-28 cells, 72 h, ± standard error, read-out: Growth Inhibition Concentration, GI50
Method: as §1, §5

[10] = tested on: A2780 (ovarian) cancer cells; test: MTT growth inhibition assay, A2780; format: cell-based; conditions: 72 h, ± standard error, read-out: Growth Inhibition Concentration, GI50
Method: as §1, §2, §3, §4

[11] = tested on: SJ-G2 (glioblastoma) cancer cells; test: MTT growth inhibition assay, SJ-G2; format: cell-based; conditions: for GI50: MTT, 72 h, ± standard error, read-out: Growth Inhibition Concentration, GI50
Method: as §1, §2, §3, §4

Structure (SMILES) | GI50 [1] [nM] | GI50 [2] [nM] | GI50 (A431 (skin) cancer cells; 72 h) [nM] | GI50 (H460 (lung) cancer cells; 72 h) [nM] | GI50 ([3]; 72 h) [nM] | GI50 [4] [nM] | Bathochromism Shift (nm) (calf thymus DNA (CT-DNA)) | Hypochromism, (%) (calf thymus DNA (CT-DNA)) | Gibbs Free Energy (calf thymus DNA (CT-DNA)) [kcal/mol] | GI50 ([5]; 72 h) [nM] | GI50 [6] [nM] | GI50 [7] [nM] | GI50 ([8]; MCF-7 cells) [nM] | GI50 [9] [nM] | GI50 [10] [nM] | GI50 [11] [nM] | further results
COc1cccc2c1[O][Sn]([c]1ccccc1)([c]1ccccc1)[S]C(SCc1ccccc1)=NN=C2 [Ph2Sn(SBoVa), Diphenyltin(IV) [S-Benzyl-β-N-(2-hydroxy-3-methoxybenzylmethylene) dithiocarbazate]] | 430 ± 40 | 580 ± 290 | 1600 ± 70 | 2200 | 1200 ± 220 | 1100 ± 390 | 12 | 70.72 | -8.29 | 1400 ± 330 | 500 ± 50 | 1300 ± 200 | 900 ± 160 | 320 ± 50 | 230 ± 30 | 740 ± 150 | greater activity than respective Schiff base ([11]; GI50 comparison): 3 fold
COc1cccc(/C=N/NC(=S)SCc2ccc(C)cc2)c1O [S4MoVaH, S-4-Methybenzyl-β-N-(2-hydroxy-3-methoxybenzylmethylene)dithiocarbazate] | – | – | – | – | – | – | – | – | – | – | – | – | – | – | – | 3300 ± 870 | GI50 ([1]; Pancreatic cancer cell): 11000 ± 2300 nM; GI50 ([2]; Homo sapiens): 3200 ± 510 nM; GI50 (A431 (skin) cancer cells; Homo sapiens, A-431, 72 h): 4200 ± 740 nM; GI50 (H460 (lung) cancer cells; Homo sapiens, NCI-H460, 72 h): 5500 ± 730 nM; GI50 ([3]; Homo sapiens, HT-29, 72 h): 8000 ± 3500 nM; GI50 ([4]; Homo sapiens, U-87 MG): 3900 nM; melting point: 177 to 178 °C; GI50 ([5]; Homo sapiens, DU-145, 72 h): 5400 ± 230 nM; GI50 ([6]; Homo sapiens, BE(2)-C): 3600 ± 270 nM; GI50 ([7]; Homo sapiens, MCF-10A): 3500 ± 230 nM; GI50 ([8]; Homo sapiens, MCF7, MCF-7 cells): 3500 nM; GI50 ([9]; Homo sapiens): 3600 ± 440 nM; GI50 ([10]; Homo sapiens): 3100 ± 400 nM
COc1cccc2c1[O][Sn]([CH3])([CH3])[S]C(SCc1ccccc1C)=NN=C2 [Me2Sn(S2MoVa), Dimethyltin(IV) [S-2-Methybenzyl-β-N-(2-hydroxy-3-methoxybenzylmethylene) dithiocarbazate]] | 3900 ± 70 | 2400 ± 770 | 3000 ± 30 | 3300 ± 130 | 2700 ± 100 | 3600 ± 230 | 10 | 37.97 | -7.55 | 3900 ± 30 | 2900 ± 30 | 3000 ± 90 | 3100 ± 120 | 2500 ± 780 | 3100 ± 60 | 2500 ± 300 | –
